Earlier results, collected in patent US8057811B2 (Douglas Pharmaceuticals Limited, priority 2003, dated 2011).

With CN1CCN(C2=Nc3cc(Cl)ccc3Nc3ccccc32)CC1 [Clozapine] as the compound, how does the solubility in water read?
Its solubility in water is “practically insoluble in water”.
